According to PMC6631687, “Relevance of In Vitro Metabolism Models to PET Radiotracer Development: Prediction of In Vivo Clearance in Rats from Microsomal Stability Data” (Pharmaceuticals, 2019):
Read-outs that look alike come from different tables or passages of the source.

Columns and labels:
[1] = Prediction of in vivo plasma clearance from microsomal stability data (well-stirred liver model) and prediction accuracy; assay type: in vitro ADME; settings: rat; for Fold Error CL (ratio predicted/observed) / Fold Underprediction CL: predicted vs observed CLp; for CLp Predicted (SD), predicted plasma clearance: well-stirred liver model, corrected for microsomal and plasma protein binding
Method: (§1) Intrinsic clearance was calculated from in vitro t1/2 using the equation [38]:(2) CLint=ln2/in vitro t1/2 (min)×fmic×ml incubation/mg microsomal protein×mg microsomal protein/g liver weight×g liver/kg body weight where scaling factors of 60 mg of microsomal protein per gram of liver and 40 g of liver tissue per kilogram of body weight were applied.
In vivo clearance in plasma was predicted using the well-stirred liver model:(4) CLp=Q×fp×CLint/Q+fp×CLint where fp is the fraction unbound in plasma and Q is hepatic blood flow with a given value of 55 mL/min/kg for rat.
The individual prediction accuracy was assessed by calculation of fold error (ratio predicted/observed). AFE (Equation (5)) and RMSE (Equation (6)) were used as measures for overall bias and precision. Underprediction was also expressed as fold underprediction, which is the inverse of AFE. (5) AFE=10^1/n∑logpredicted/observed (6) RMSE=1/n∑(predicted−observed)^2 with n, number of predictions.

[2] = In vivo pharmacokinetics in rat plasma after i.v. administration; settings: for clearance / Vd / half-life: iv, single i.v. dose approx. 0.4 nmol, mean plasma curves, triexponential fit; for clearance: read-out: CLp (plasma clearance, in vivo); for Vd: read-out: Vd (volume of distribution); for half-life: read-out: t1/2,term (terminal half-life); for Parent fraction (authentic radiotracer of total plasma radioactivity): rat plasma, 180 min p.i., radio-TLC
Method: Pharmacokinetic experiments on rats (n = 27) were conducted under isoflurane anesthesia (1.5–2% in oxygen) with continuous monitoring of physiological parameters. Polyethylene catheters (PE 50; filled with heparinized saline) were implanted into the femoral artery for arterial blood sampling and the lateral tail vein for radiotracer application. [^18F]CPFPX, [^18F]MCBX or [^18F]CBX (21 ± 2.5 MBq, 0.39 ± 0.20 nmol) was formulated in physiological saline (1 mL total volume) and administered over 1 min using a syringe pump (model 44, Harvard Apparatus, Holliston, MA, USA). Arterial blood samples (ca. 200 μL) were collected at regular time intervals throughout the 180-min experiment. The total blood sampling volume was kept below 10% of the circulating blood volume of the animal. Plasma was separated by centrifugation (3,000 rcf, 3 min, 21 °C), weighed and measured in a γ-counter (ISOMED 2100, MED Nuklear-Medizintechnik Dresden GmbH, Dresden, Germany) to calculate plasma radioactivity concentration. Fractions of unchanged radiotracer (parent fraction) and radiolabeled metabolites in plasma were assessed by radio-thin layer chromatography (TLC) analysis. Aliquots (45 μL) of plasma were mixed with 3 volumes of methanol/acetonitrile (50:50, v/v, 4 °C), vortexed (1 min, 21 °C) and centrifuged (20,000 rcf, 5 min, 21 C) to sediment precipitated protein. Aliquots (5 μL) of the supernatants were spotted on a TLC plate (SIL G-25, 10 × 20 cm, Macherey-Nagel, Düren, Germany). The TLC plate was developed with ethyl acetate/hexane, 75:25 (v/v), dried and subsequently imaged for 50 min with an electronic autoradiography system (InstantImager, Canberra-Packard, Rüsselsheim, Germany).
PK analysis was performed on decay and metabolite-corrected plasma radioactivity data of 8 ([^18F]CBX, [^18F]CPFPX) or 9 ([^18F]MCBX) individual animals. Data of 2 animals could not be used for PK analysis due to paravenous radiotracer injection. Since interindividual variations in plasma kinetics within the test groups were relatively small, individual plasma data were combined to mean data sets for analysis. Assuming a specific density of 1 g/mL for plasma, radioactivity concentration was calculated and plotted against time. For data visualization, plasma radioactivity concentration was normalized to body weight and amount of injected radioactivity, yielding SUV. PK parameters were derived from the radioactivity concentration-time data via nonlinear regression analysis applying a triexponential model:(7) Cp(t)=A1e^−λ1t+A2e^−λ2t+A3e^−λ3t where Cp is the plasma radioactivity concentration, t is time, A1, A2, and A3 represent the y-intercepts of the distribution/elimination phases of the plasma concentration-time curve and λ1, λ2, and λ3 represent the first-order rate constants of the phases.
Plasma clearance, volume of distribution and terminal half-life were calculated from the model parameters A and λ according to the following equations [44]:(8) CLp=D/∫0∞Cp(t)dt=D/∑i=1nAi/λi (9) Vd=Clp/λ3 (10) t1/2,term=ln 2/λ3 where D is the injected radioactivity and λ3 is the terminal rate constant.

[3] = Microsomal stability assay (substrate depletion) in rat liver microsomes; assay type: in vitro ADME; settings: male, Sprague Dawley; for half-life at 8 µM: pH 7.4, 8 µM substrate, 0.5 mg/mL protein, triplicate, read-out: In vitro t1/2 (SD); for CLint scaled at 8 µM: pH 7.4, scaled from in vitro t1/2 with fmic, 60 mg protein/g liver, 40 g liver/kg, read-out: CLint (SD), intrinsic clearance
Method: RLM (Sprague Dawley, male, 20 mg/mL protein concentration) were purchased from Thermo Fisher Scientific/Life Technologies (Darmstadt, Germany). Assay conditions (buffer, microsomal protein concentration, solvent) were evaluated and optimized in a preliminary study. RLM (0.5 mg/mL microsomal protein) and substrate (8 µM CBX, MCBX or CPFPX, 1 mM stock solutions in DMSO) were preincubated for 5 min at 37 °C in HEPES buffer (100 mM, pH 7.4) containing MgCl2 (3.3 mM). Reactions were initiated by addition of preheated NADPH (1.3 mM). Final incubation volume was 1 mL. Aliquots (100 µL) were withdrawn at 0, 2, 5, 10, 15 and 20 min and quenched with an equal volume of methanol/acetonitrile (50:50, v/v, cooled to −20 °C). The samples were mixed on a vortex mixer (1 min, 21 °C) and centrifuged (20,000 rcf, 10 min, 21 °C) to sediment precipitated protein. The supernatants (aliquots of 50 µL) were analyzed on a Knauer smartline HPLC-UV/VIS system (Knauer, Berlin, Germany) equipped with a manual sample injector (Rheodyne type 7125), a 500 µL sample loop and a Kromasil 100-5-C18 (4.6 × 250 mm) analytical column (AkzoNobel, Bohus, Sweden). Chromatography was performed using a mobile phase composition of ACN/H2O/HAc 48:52:0.2 (v/v/v), and with a flow rate of 1 mL/min and a detection wavelength of 275 nm. Experiments were conducted in triplicate.
Substrate depletion was calculated from the area ratios of the analyte peak, using the value at t = 0 min as 100%. Depletion data were fitted to the monoexponential decay model (Equation (1)) to derive in vitro t1/2. (1) C(t)=C0e^−ln2/t1/2t where C0 is the substrate concentration at time t = 0.
as §1

Lipophilicity (log P) = assay type: physicochemical
Method: Table 1 Metabolic stability of the xanthine A1AR ligands in rat liver microsomes and predicted plasma clearance (CLp). Experiments were conducted in triplicate. fmic, unbound fraction in microsomes; CLint, intrinsic clearance; SD, standard deviation. | column: Log P

Structure (SMILES)	Fold Error CL (ratio predicted/observed) [1]	Fold Underprediction CL [1]	clearance ([2]; rat) [mL/min/kg]	Vd ([2]; rat) [L/kg]	half-life ([2]; rat) [min]	Parent fraction (authentic radiotracer of total plasma radioactivity) [2]	Plasma level relative to [^18F]CPFPX ([2]; rat, second and third phase of the curve (10-180 min p.i.))	half-life at 8 µM [3] [min]	CLint scaled at 8 µM [3] [mL/min/kg]	logP (Lipophilicity (log P))	CLp Predicted (SD), predicted plasma clearance [1]	half-life ([2]; 0.39 nmol, rat) [min]
CCCn1c(=O)c2[nH]c(C3CCC3)nc2n(CCC[18F])c1=O [[^18F]CBX, 8-cyclobutyl-3-(3-[^18F]fluoropropyl)-1-propylxanthine]	0.84	1.2	3.22	0.356	76.5	~25%	approximately twice as high					
CCCn1c(=O)c2[nH]c(C3(C)CCC3)nc2n(CCCF)c1=O [MCBX]								19.8	204	2.82	7.76 (0.22) mL/min/kg	
CCCn1c(=O)c2[nH]c(C3CCCC3)nc2n(CCC[18F])c1=O [[^18F]CPFPX, 8-cyclopentyl-3-(3-[^18F]fluoropropyl)-1-propylxanthine, reference compound]	0.66	1.5	7.1	0.523	51	approximately 7%						~50
CCCn1c(=O)c2[nH]c(C3CCC3)nc2n(CCCF)c1=O [CBX]								35.1	106	2.19	2.72 (0.13) mL/min/kg	
CCCn1c(=O)c2nc(C3CCCC3)[nH]c2n(CCCF)c1=O [CPFPX, reference compound]	0.66							14	295	2.93	4.70 (0.07) mL/min/kg	
CCCn1c(=O)c2[nH]c(C3(C)CCC3)nc2n(CCC[18F])c1=O [[^18F]MCBX, 3-(3-[^18F]fluoropropyl)-8-(1-methylcyclobutyl)-1-propylxanthine]	0.85	1.2	9.1	0.715	54.5	~13%						~50
